Drawing on ChEMBL document CHEMBL3596127, “Design, synthesis and molecular docking of novel bipyrazolyl thiazolone scaffold as a new class of antibacterial agents” (Medchemcomm, 2014), this text covers MIC, IC50 and LC30 for 14 compounds.

Structures are written as SMILES. ≈ marks a conversion by molar mass, not a printed value.

Series [1] concerns Bacillus spizizenii. Description: Antibacterial activity against Bacillus subtilis ATCC 6633 after 24 hrs by MTT assay. It is filed as functional. The conditions noted are these: ATCC 6633, 24 h. (In general: Tetrazolium assays rely on reduction of a dye to a coloured formazan, in cell work by metabolically active cells.)
Series [2] has as its system Staphylococcus aureus. The experiment in a line: Antibacterial activity against Staphylococcus aureus ATCC 6538 after 24 hrs by MTT assay. The format is functional. The note with it: ATCC 6538, 24 h.
Series [3] relates to Escherichia coli. The experiment in a line: Antibacterial activity against Escherichia coli ATCC 35218 after 24 hrs by MTT assay. The format is functional. The note with it: ATCC 35218, 24 h.
The test system of series [4] is Pseudomonas aeruginosa. The experiment in a line: Antibacterial activity against Pseudomonas aeruginosa ATCC 13525 after 24 hrs by MTT assay. The note with it: ATCC 13525, 24 h. The format is functional.
Series [5] in a line: Inhibition of full-length N-terminal His-tagged Escherichia coli FabH expressed in Escherichia coli BL21 (DE3) using acetyl-CoA/[3H]-acetyl-CoA/holo-ACP as substrate by liquid scintillation counting analysis.
A short description of series [6]: Hemolytic activity in RBC (unknown origin). The format is ADME, cell-based. The note with it: erythrocyte.

As for `Cc1nn(-c2ccccc2)c(-n2cnc3ccccc32)c1C1CC(c2cccs2)=NN1C1=NC(=O)/C(=C/c2c[nH]c3ccccc23)S1` (configuration not stated), the MIC was 12.5 µg/mL (≈ 19.2 µM) in series [1], 50 µg/mL (≈ 76.8 µM) in series [2], 3.13 µg/mL (≈ 4.81 µM) in series [3] and 12.5 µg/mL (≈ 19.2 µM) in series [4]. The same compound yielded an IC50 in series [5] of 2.5 µM. The same compound gave an LC30 in series [6] of over 10000 µg/mL.
For the compound `CC1(C)S[C@@H]2[C@H](NC(=O)Cc3ccccc3)C(=O)N2[C@H]1C(=O)O` [PENICILLIN G], the MIC in series [1] amounted to 1.56 µg/mL (≈ 4.67 µM); in series [2], 6.25 µg/mL (≈ 18.7 µM); in series [3], 3.13 µg/mL (≈ 9.36 µM); in series [4], 6.25 µg/mL (≈ 18.7 µM).
Consider `Cc1nn(-c2ccccc2)c(-n2ccnc2)c1C1CC(c2cccs2)=NN1C1=NC(=O)/C(=C/c2ccco2)S1` (configuration not stated), for which the MIC in series [1] is 25 µg/mL (≈ 45.3 µM); in series [2] it was 6.25 µg/mL (≈ 11.3 µM); in series [3], 25 µg/mL (≈ 45.3 µM); in series [4] it was over 50 µg/mL. In series [5], this compound came in with an IC50 of 12.8 µM. Also, the LC30 in series [6] is over 10000 µg/mL.
For the compound `Cc1nn(-c2ccccc2)c(-n2nnc3ccccc32)c1C1CC(c2cccs2)=NN1C1=NC(=O)/C(=C/c2c[nH]c3ccccc23)S1` (configuration not stated), the MIC is over 50 µg/mL in series [1], 25 µg/mL (≈ 38.4 µM) in series [2], 3.13 µg/mL (≈ 4.8 µM) in series [3] and 6.25 µg/mL (≈ 9.59 µM) in series [4]. This compound had an IC50 in series [5] of 3.1 µM. The compound also registered an LC30 in series [6] of over 10000 µg/mL.
As for `Cc1nn(-c2ccccc2)c(-n2cnc3ccccc32)c1C1CC(c2cccs2)=NN1C1=NC(=O)/C(=C/c2cccs2)S1` (configuration not stated), the MIC in series [1] worked out at 3.13 µg/mL (≈ 5.07 µM); in series [2] it was 25 µg/mL (≈ 40.5 µM); in series [3], 25 µg/mL (≈ 40.5 µM); in series [4], 25 µg/mL (≈ 40.5 µM). In addition, the IC50 in series [5] stood at 9.1 µM. The same compound returned an LC30 in series [6] of over 10000 µg/mL.
Consider `Cc1nn(-c2ccccc2)c(-n2cncn2)c1C1CC(c2cccs2)=NN1C1=NC(=O)/C(=C/c2c[nH]c3ccccc23)S1` (configuration not stated), for which the MIC in series [1] is 25 µg/mL (≈ 41.5 µM); in series [2], over 50 µg/mL; in series [3] it was 12.5 µg/mL (≈ 20.8 µM); in series [4], over 50 µg/mL. In series [5], 4.7 µM corresponded to half-maximal inhibition (IC50). In series [6], this compound displayed an LC30 of over 10000 µg/mL.
Consider `Cc1nn(-c2ccccc2)c(-n2ccnc2)c1C1CC(c2cccs2)=NN1C1=NC(=O)/C(=C/c2c[nH]c3ccccc23)S1` (configuration not stated), for which the MIC was 25 µg/mL (≈ 41.6 µM) in series [1], 50 µg/mL (≈ 83.2 µM) in series [2], 6.25 µg/mL (≈ 10.4 µM) in series [3] and 3.13 µg/mL (≈ 5.21 µM) in series [4]. Further, in series [5], the IC50 came out at 3.9 µM. Besides, the LC30 in series [6] was over 10000 µg/mL.
For `Cc1nn(-c2ccccc2)c(-n2cncn2)c1C1CC(c2cccs2)=NN1C1=NC(=O)/C(=C/c2ccco2)S1` (configuration not stated), the MIC in series [1] was 25 µg/mL (≈ 45.2 µM); in series [2] it was over 50 µg/mL; in series [3], 50 µg/mL (≈ 90.5 µM); in series [4], 50 µg/mL (≈ 90.5 µM). This compound registered an IC50 in series [5] of 26.1 µM. The LC30 in series [6] is over 10000 µg/mL.
As for `Cc1nn(-c2ccccc2)c(-n2cnc3ccccc32)c1C1CC(c2cccs2)=NN1C1=NC(=O)/C(=C/c2ccco2)S1` (configuration not stated), the MIC in series [1] was 6.25 µg/mL (≈ 10.4 µM); in series [2] it was 12.5 µg/mL (≈ 20.8 µM); in series [3] it was over 50 µg/mL; in series [4] it was over 50 µg/mL. This compound also yielded an IC50 in series [5] of 8.5 µM. The compound further gave an LC30 in series [6] of over 10000 µg/mL.
In the case of `Cc1nn(-c2ccccc2)c(-n2nnc3ccccc32)c1C1CC(c2cccs2)=NN1C1=NC(=O)/C(=C/c2cccs2)S1` (configuration not stated), the MIC in series [1] was 12.5 µg/mL (≈ 20.2 µM); in series [2] it was over 50 µg/mL; in series [3], 50 µg/mL (≈ 80.8 µM); in series [4] it was 6.25 µg/mL (≈ 10.1 µM). In addition, the IC50 in series [5] was determined as 17.5 µM. Further, in series [6], the LC30 was over 10000 µg/mL.
Regarding `Cc1nn(-c2ccccc2)c(-n2cncn2)c1C1CC(c2cccs2)=NN1C1=NC(=O)/C(=C/c2cccs2)S1` (configuration not stated), the MIC in series [1] worked out at 25 µg/mL (≈ 44 µM); in series [2], 6.25 µg/mL (≈ 11 µM); in series [3], 25 µg/mL (≈ 44 µM); in series [4] it was 50 µg/mL (≈ 87.9 µM). This compound also yielded an IC50 in series [5] of 15.6 µM. The compound further had an LC30 in series [6] of over 10000 µg/mL.
Regarding `Cc1nn(-c2ccccc2)c(-n2ccnc2)c1C1CC(c2cccs2)=NN1C1=NC(=O)/C(=C/c2cccs2)S1` (configuration not stated), the MIC in series [1] was over 50 µg/mL; in series [2] it was 25 µg/mL (≈ 44 µM); in series [3], over 50 µg/mL; in series [4], 25 µg/mL (≈ 44 µM). In series [5], this compound had an IC50 of 11.3 µM. Besides, in series [6], the LC30 was over 10000 µg/mL.
Turning to `Cc1nn(-c2ccccc2)c(-n2nnc3ccccc32)c1C1CC(c2cccs2)=NN1C1=NC(=O)/C(=C/c2ccco2)S1` (configuration not stated), the MIC is over 50 µg/mL in series [1], 50 µg/mL (≈ 83 µM) in series [2], over 50 µg/mL in series [3] and 6.25 µg/mL (≈ 10.4 µM) in series [4]. This compound displayed an IC50 in series [5] of 21.9 µM. For the same compound, the LC30 in series [6] was over 10000 µg/mL.
As to `NC[C@H]1O[C@H](O[C@H]2[C@H](O)[C@@H](O[C@H]3O[C@H](CO)[C@@H](O)[C@H](N)[C@H]3O)[C@H](N)C[C@@H]2N)[C@H](N)[C@@H](O)[C@@H]1O` [BEKANAMYCIN], the MIC in series [1] was 0.39 µg/mL (≈ 0.807 µM); in series [2], 1.56 µg/mL (≈ 3.23 µM); in series [3], 1.56 µg/mL (≈ 3.23 µM); in series [4] it was 3.13 µg/mL (≈ 6.47 µM). Also, the midpoint of inhibition in series [5], the IC50, lay at 6.3 µM. For the same compound, the LC30 in series [6] is over 10000 µg/mL.

As a reminder, the MIC is the lowest concentration that inhibits growth of the organism. Low values mean greater potency, high ones weaker potency. A word on the IC50: it is the concentration that inhibits the measured activity by half.
